Laboratory results: US20090117653A1 (Governors of the University of Alberta, priority 2007, published 2009)

Assays:
Format in all cases: cell-based, human
[1] = test system: clonotypic MM cells in rBM (MM BMC); assay: Reduction of clonal cells in 3-D rBM culture, RQ-PCR with patient specific primers; conditions: rBM grown 14 days, single treatment 7 days, 7 days recovery
Description: (§1) For preclinical studies, the rBM was grown for 14 days to allow for stratification of the culture and expansion of the malignant cells and the stromal layer. A single treatment of either melphalan or bortezomib was administered in a fresh aliquot of Growth Medium overlaid on top of the 3-D culture. After 7 days of treatment, fresh medium was added and cells were allowed to recover for an additional period of 7 days, after which cells were isolated using the Cell Recovery Solution and the effects of treatment were analyzed, and for CFU activity of drug resistant LRC.
For real-time quantitative PCR (RQ-PCR), total genomic DNA was isolated with TRIzol™ reagent (Invitrogen, Burlington, ON) per manufacturer's instructions. […] Controls included cloned VDJ sequences for each patient used to generate a standard curve for the specific clonotypic sequence and comparison with a standard curve for a housekeeping gene, β2 microglobulin (normalized to the two copies of B2M templates/cell), to quantify the number of templates in unknown samples before and after 3-D culture. […]
FIG. 4a illustrates the reduction of the clonal cells as measured by RQ-PCR with patient specific primers (melphalan p=0.016, bortezomib p=0.39). […] Treatment of rBM with melphalan led to a 60% decrease in the number of clonotypic cells as measured by RQ-PCR.

[2] = test system: rBM cells (MM BMC); CD138+/CD56+ population; assay: Apoptosis within rBM by flow cytometry measuring AnnexinV reactivity
Description: as §1
For flow cytometry, cells were isolated from 3-D cultures with Cell Recovery Solution, stained with various FITC tagged CD antigens or Annexin V-PE and analyzed by flow cytometry to measure the extent of proliferation and apoptosis using a FACSort flow cytometer (BD, Oakville, ON). Data was analyzed with CellQuest Pro software.
FIGS. 4a-d illustrate a comparative evaluation of two MM therapeutics in a 3-D BM cell culture assembly in accordance with various embodiments. […]
FIG. 4b illustrates apoptosis within rBM as assessed by flow cytometry measuring AnnexinV reactivity post treatment with melphalan (left panel) or bortezomib (middle panel). MM specific cell killing by bortezomib was monitored in the CD138+/CD56+ population by AnnexinV reactivity (right panel).

[3] = test system: stromal compartment of rBM; conditions: brightfield microscopy; TRAP, Oil Red, ALP staining at rEnd; FIG. 4c, 4d
Description: as §1
For microscopy, confocal z-slices were imaged on a Carl Zeiss confocal LSM 510 microscope equipped with appropriate filters and the 3D reconstruction was done using Zeiss 510 image analysis software. Quantification of LRC positioning was performed with Imaris 3.2.2 software, Bitplane AG (Zurich, Switzerland). Stromal cells were stained with TRAP, Oil Red, Alkaline phosphatase, or Alizarin Red according to the manufacturer's instructions and imaged on Zeiss Axioskop digital microscope. For fibronectin, phalloidin and N-cadherin staining, cells were fixed with 1% neutral buffered formalin for 10 min at RT, permeabilized with 0.5% Triton X-100 and non-specific binding was blocked with 1% BSA for 1 hr at RT. […]

LRCs (putative MM-CSC) = assay: Persistence of label retaining cells (LRC) in melphalan treated 3-D cultures of mobilized blood cells, CFSE flow cytometry; conditions: mobilized blood mononuclear cells, 14 days in 3-D, then treated
Description: In the embodiments illustrated in FIGS. 1-7, 3-D cell culture and other techniques were performed. BMC were isolated from BM aspirates by Ficoll-Paque gradient centrifugation per manufacturer's instructions. Surface coating (rEnd) was created by incubating tissue culture plates with fibronectin/collagen I (1:1) in PBS at a final concentration of 5 μg/1 cm^2 of each protein. Plates were incubated for <30 min at room temperature (RT) and the remaining fluid was removed and was replaced with the rBM layer consisting of the BMC cells in an ECM mixture of Matrigel™/fibronectin (2:1 v/v). For analysis of proliferation and LRCs, cells were labeled with 0.25 μM CFSE for 15 min at 40° C. […]
For CFU assays, CFSE labeled cells were isolated from the 3-D culture and the CFSE+ cells were sorted on an EPICS ALTRA cell sorter, by gating on the live cells based on the forward and side scatter and on the CFSE+ population based on fluorescence intensity in the FL1 channel (see FIG. 6a, below). […] The MethoCult™ cultures were incubated for 14 days and the resulting colonies were counted. […]
FIG. 6a illustrates the flow cytometry profile of the LRCs. The gate for sorting was set to isolate CFSE-high cells and the percentage of LRCs was calculated as the percent of CFSE-high cells in the live cell fraction of the 3-D culture.

Structure (SMILES) | decrease in the number of clonotypic cells as measured by RQ-PCR ([1]; p=0.016) [%] | apoptosis in rBM (AnnexinV reactivity) ([2]; overall rBM, post treatment, FIG. 4b, 4c) | effect on stromal compartment of rBM [3] | depletion in 3-D of other hematopoietic cells (LRCs (putative MM-CSC)) [%] | enrichment of LRCs in treated 3-D cultures (LRCs (putative MM-CSC); CFSE labeled, FIG. 6a) [%] | reduction in clonotypic cells (in words) ([1]; FIG. 4a, p=0.39) | apoptosis in CD138+CD56+ PC population (AnnexinV reactivity) ([2]; CD138+/CD56+ population, FIG. 4b right panel)
N[C@@H](Cc1ccc(N(CCCl)CCCl)cc1)C(=O)O [melphalan] | 60 | induced apoptosis of all cell types within the hematopoietic hierarchy | remained intact | ≥ 50 | 50 | – | –
CC(C)C[C@H](NC(=O)[C@H](Cc1ccccc1)NC(=O)c1cnccn1)B(O)O [bortezomib] | – | – | – | – | – | neither a significant reduction in clonotypic cells | the only cell population subject to bortezomib induced apoptosis
